In patent publication US6461610B1, “Methods for modifying cell motility using factor VIIa or inactivated factor VIIa” (Novo Nordisk A/S, priority 1997, dated 2002):
One block for each molecule: values may come before it.

Tests used:
[1] = test system: human foreskin fibroblasts AG1523; test: Chemotaxis assay, modified Boyden chamber, PDGF-BB induced migration of fibroblasts; assay type: cell-based; conditions: for effect of inhibitor on FVIIa/TF hyperchemotactic response to PDGF-BB: 30 min pretreatment; for migration of fibroblast in response to PDGF without FVIIa: without the ligand FVIIa
Procedure: Chemotaxis assay. The migration response of fibroblasts was assayed by means of the leading front technique in a modified Boyden chamber, as previously described (Nister et al., Cell 52, 791-799 (1988); Siegbahn et al. J. Clin. Invest. 85, 916-920 (1990)). Micropore filters (pore size 8 μm) were coated with a solution of type-i collagen at room temperature over night. The filters were air dried for 30 minutes immediately before use.
Human foreskin fibroblasts AG1523 were grown to confluence in Eagle's MEM supplemented with 10% FBS. The cells were detached by trypsinization (2.5 mg/ml for 10 minutes at 37° C.) and suspended in Eagle's MEM with 10% FBS. The fibroblasts were incubated for 10 minutes with or without FVIIa or FFR-FVIIa before assay. One hundred microliters of the cell suspension (2×10^5 cells/ml) was added above the filter of the Boyden chamber. PDGF-BB was diluted in assay media (Eagle's MEM with 10% FBS) and added below the filter in the chamber. The cells were incubated for 6 hours at 37° C. in a humidified chamber containing 95% air/5% CO2. FVIIa or FFR-FVIIa were present during the entire experiment. The filters were then removed, fixed in ethanol, stained with Mayer's Hemalun, and mounted. Migration was measured as the distance of the two furthest migrating fibroblast nuclei of one high-power field (12.5×24) in focus. The migration distance in each filter was calculated as the mean of the readings of at least three different parts of the filter. Experiments were performed with two to four separate filters for each concentration of chemoattractant. For each set of experiments, the migration of fibroblasts toward the assay media served as control. In cases when anti-TF monoclonal antibodies or inhibitors to coagulation factors, TAP and Hirudin, were used, cells were preincubated for 10 minutes with these agents, then with or without FVIIa or FFR-FVIIa before the chemotaxis assay was performed. Antibodies, TAP or Hirudin were also present during the entire chemotaxis experiment. In experiments where the effects on the migration response of different inhibitors, LY294002, U73122 or U73343, were tested, cells were preincubated for 30 minutes with the inhibitors at indicated concentrations, and the inhibitors were also present throughout the experiments.
Fibroblasts expressing active TF (FIG. 11) were incubated with 100 nM of FVIIa and seeded in the upper part of the modified Boyden chamber; while media containing 10% FBS and PDGF-BB at different concentrations were added below the […] micropore filter. The migration of the cells under conditions where medium containing 10% FBS without PDGF-BB was added below the filter was used as a measure of random migration, and calculated as 100% migration.

[2] = biological target: T1, factor VIIa/tissue factor complex (Homo sapiens, UniProt P08709); test: TF-stimulated factor VIIa activity with chromogenic substrate S2288, zinc ion inhibition; assay type: biochemical; conditions: 0.2 mM cystin dihydroxamate; 10 nM FVIIa, 50 nM TF1-218
T1 construct: TF1-218 from Dr W. Kisiel, University of New Mexico
T1 sequence (P08709 61-212 limits assumed): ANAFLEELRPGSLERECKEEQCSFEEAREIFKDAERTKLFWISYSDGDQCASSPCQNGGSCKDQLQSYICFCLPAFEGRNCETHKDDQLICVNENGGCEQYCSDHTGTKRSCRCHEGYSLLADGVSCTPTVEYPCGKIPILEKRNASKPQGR
T1 sequence (P08709 213-466 limits assumed): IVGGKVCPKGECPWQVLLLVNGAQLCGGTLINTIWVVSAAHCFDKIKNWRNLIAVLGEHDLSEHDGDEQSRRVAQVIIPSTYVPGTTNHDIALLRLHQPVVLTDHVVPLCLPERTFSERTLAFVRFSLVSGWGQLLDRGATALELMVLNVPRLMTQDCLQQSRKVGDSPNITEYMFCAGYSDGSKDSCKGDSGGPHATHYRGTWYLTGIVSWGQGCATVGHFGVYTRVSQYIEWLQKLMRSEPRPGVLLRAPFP
Procedure: Factor VIIa activity was measured with the chromogenic substrate S2288 (H-D-Ile-Pro-Arg-p-nitroanilide). The activity of 10 nM FVIIa in the presence of 50 nM TF1-218 (Dr W. Kisiel, University of New Mexico, Albuquerque, N. Mex.) was measured in buffer containing 50 mM TrisCl pH 7.4 0.1 M NaCl, 1 mM CaCl2, 0.05% Tween 20 and 0.4 mM S2288. The activity was measured at room temperature as the change in absorbance at 405 nm.

[3] = test system: human TF; test: SRE/STAT luciferase reporter (KZ136) in BHK cells stably transfected with human TF; assay type: cell-based; conditions: 50 μM PD98059 for one hour prior to 100 nM FVIIa
Description: BHK cells with and without stably transfected TF were stably transfected with KZ136 (reporter construct encoding 2×STAT1,3), 2×(STAT4,5,6) and a serum response element (SRE) upstream to a luciferase reporter gene) were stimulated with FVIIa. Only cells expressing TF responded to FVIIa in a dose dependent manner.
PD98059 is a specific inhibitor of MEK1, a kinase specifically involved in the p44/p42 MAPK cascade.
BHK cells stably transfected with the human TF and the reporter plasmid KZ136 were grown to 90% confluence, starved in DMEM with 0.1% FCS for 16 hours and then stimulated with FVIIa or FVIIai (FIG. 8). […] Also shown in FIG. 8 is an experiment where competition between FVIIa and FVIIai was studied. FVIIai was added to the cells 1 hour prior to stimulation with 20 nM FVIIa. The response induced by 20 nM FVIIa was inhibited 27%, 59%, 77%, and 91% by the addition of 20 nM, 50 nM, 100 nM, and 500 nM FVIIai, respectively.

[4] = test system: MAPK p44/42; test: Western blot of phosphorylated MAPK p44/42 in BHK cells stably transfected with human TF; assay type: cell-based; conditions: 100 nM for 5 min
Procedure: In this set of experiments with TF transfected BHK, ECV-304 and MDCK cell lines two antibodies raised against the MAPK were used, one targeting activated as well as non-activated forms of MAPK, and another, targeting only the activated (phosphorylated) form of MAPK.
BHK cells stable transfected with human TF were grown to 90% confluence and starved in DMEM with 0. 1% FCS for 24 hours prior to stimulation with FVIIa. Samples for Western blotting were sampled at 0, 3, 5, 7, 10, 20 and 40 minutes after addition of 100 nM FVIIa. […] Over the next 10 minutes the response declined to reach the background level at about 20 minutes after addition of FVIIa.
In this set of experiments with TF transfected BHK cell lines we used a phospho-specific antibody against phosphorylated (Thr202/Tyr204) p44/42 MAPK and an antibody targeting total p44/42 MAPK (New Englands Biolabs, Beverly, Mass.).
BHK cells stable transfected with human TF were grown to 90% confluence and starved in DMEM with 0.1% FCS for 24 hours prior to stimulation. In FIG. 9A the cells were stimulated with 100 nM FVIIa for 0, 3, 5, 7, 10 and 40 minutes before the cells were lysed and samples for Western blotting were taken.
The results shown in FIG. 9B were obtained when BHK(+TF) cells were exposed to 100 nM FVII, FVIIa, FVIIai, [Ala344]FVII or FXa for 5 min. […]

[5] = 100 nM FVIIa, 0.1 ng/ml PDGF-BB

Molecule: COc1ccc2c(c1)CC[C@@H]1[C@@H]2CC[C@]2(C)[C@@H](NCCCCCCN3C(=O)C=CC3=O)CC[C@@H]12 [Example U73122]
inhibitor concentration giving total inhibition of hyperchemotactic response [1, 5]: 1 µM | effect of inhibitor on FVIIa/TF hyperchemotactic response to PDGF-BB [1, 5]: inhibited

Molecule: TAP: Tick anticoagulant peptide, specifically blocks the active site of FXa (YNRLCIKPRDWIDECDSNEGGERAYFRNGKGGCDSFWICPEDHTGADYYSSYRDCFNACI; UniProt P17726 1-60, looked up)
effect on enhanced migration response transduced by FVIIa/TF ([1]; 0.2-10 μM TAP, 100 nM FVIIa): not blocked | migration of fibroblast in response to PDGF without FVIIa [1]: did not influence

effect of zinc ions to abolish FVIIa-TF complex formation / activity in presence of chelator [2]: profoundly potentiated
Molecule: N[C@@H](CSSC[C@H](N)C(=O)NO)C(=O)NO [cystindihydroxamate, L-Cystine dihydroxamate]

Molecule: Hirudin
effect on FVIIa/TF induced hyperchemotaxis ([1]; 5 U/ml Hirudin, 100 nM FVIIa): had no any effect | migration of fibroblast in response to PDGF without FVIIa [1]: did not influence

Molecule: COc1cccc(-c2cc(=O)c3ccccc3o2)c1N [PD98059]
reporter response to 100 nM FVIIa after inhibitor pre-treatment [3]: did not respond

Molecule: COc1ccc2c(c1)CC[C@@H]1[C@@H]2CC[C@]2(C)[C@@H](NCCCCCCN3C(=O)CCC3=O)CC[C@@H]12 [Example U73343]
effect of inhibitor on FVIIa/TF hyperchemotactic response to PDGF-BB [1, 5]: No effect

B1: [Ala344]FVII: FVII with Ala at catalytic residue 344 (protein, UniProt P08709 1-466, looked up, variant S344A)
chain: MVSQALRLLCLLLGLQGCLAAGGVAKASGGETRDMPWKPGPHRVFVTQEEAHGVLHRRRRANAFLEELRPGSLERECKEEQCSFEEAREIFKDAERTKLFWISYSDGDQCASSPCQNGGSCKDQLQSYICFCLPAFEGRNCETHKDDQLICVNENGGCEQYCSDHTGTKRSCRCHEGYSLLADGVSCTPTVEYPCGKIPILEKRNASKPQGRIVGGKVCPKGECPWQVLLLVNGAQLCGGTLINTIWVVSAAHCFDKIKNWRNLIAVLGEHDLSEHDGDEQSRRVAQVIIPSTYVPGTTNHDIALLRLHQPVVLTDHVVPLCLPERTFSERTLAFVRFSLVSGWGQLLDRGATALELMVLNVPRLMTQDCLQQSRKVGDSPNITEYMFCAGYSDGSKDSCKGDAGGPHATHYRGTWYLTGIVSWGQGCATVGHFGVYTRVSQYIEWLQKLMRSEPRPGVLLRAPFP
activation (phosphorylation) of p44/42 MAPK [4]: no significant activation
